pEC50: −log10 of the molar value. The source made the active and inactive calls. The calls are words filed in the database; no cut-off is given here.
What was measured:
[1] = molecular target: T1, G-protein coupled bile acid receptor 1 (Homo sapiens, UniProt Q8TDU6); assay: Agonist activity at N-terminal HA-tagged human TGR5 expressed in HEK293 cells assessed as […] in intracellular cAMP levels incubated for 30 mins by Lance Ultra cAMP assay; assay type: functional, cell-based
T1 sequence (Q8TDU6 whole entry): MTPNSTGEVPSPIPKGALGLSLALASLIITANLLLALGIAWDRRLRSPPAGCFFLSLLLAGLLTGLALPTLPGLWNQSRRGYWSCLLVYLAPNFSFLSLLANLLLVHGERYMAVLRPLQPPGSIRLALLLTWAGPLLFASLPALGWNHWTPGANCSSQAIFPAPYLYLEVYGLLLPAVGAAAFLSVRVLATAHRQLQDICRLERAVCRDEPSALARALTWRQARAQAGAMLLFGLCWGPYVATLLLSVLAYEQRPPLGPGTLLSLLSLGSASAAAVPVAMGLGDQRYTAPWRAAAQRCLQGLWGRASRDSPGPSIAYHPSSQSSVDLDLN

[2] = molecular target: T2, G-protein coupled bile acid receptor 1 (Homo sapiens) (UniProt Q8TDU6); assay: Agonist activity at N-terminal HA-tagged human TGR5 expressed in HEK293 cells assessed as […] in intracellular cAMP levels incubated for 30 mins by Lance Ultra cAMP assay relative to control; assay type: functional, cell-based; conditions: filed as agonist
T2 sequence (whole entry): T1 sequence (Q8TDU6 whole entry)

[3] = molecular target: T3, Bile acid receptor (Homo sapiens) (UniProt Q96RI1); assay: Agonist activity at human FXR (247 to 467 residues) expressed in HEK293 cells at 100 uM incubated for 8 hrs by luciferase assay; assay type: cell-based
T3 sequence (whole entry): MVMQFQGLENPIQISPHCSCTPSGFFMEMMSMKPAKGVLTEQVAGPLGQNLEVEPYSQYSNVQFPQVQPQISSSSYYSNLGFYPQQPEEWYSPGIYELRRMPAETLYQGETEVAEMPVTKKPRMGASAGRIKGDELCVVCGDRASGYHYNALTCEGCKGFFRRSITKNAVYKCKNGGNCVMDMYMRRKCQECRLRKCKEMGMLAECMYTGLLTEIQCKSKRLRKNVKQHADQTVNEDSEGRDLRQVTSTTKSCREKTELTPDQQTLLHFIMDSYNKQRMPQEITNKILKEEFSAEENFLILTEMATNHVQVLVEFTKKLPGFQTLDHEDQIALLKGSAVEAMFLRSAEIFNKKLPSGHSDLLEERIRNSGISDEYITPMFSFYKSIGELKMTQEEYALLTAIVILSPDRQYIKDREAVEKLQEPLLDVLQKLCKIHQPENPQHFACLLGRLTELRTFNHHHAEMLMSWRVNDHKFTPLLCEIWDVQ

| pEC50 [1] | Emax [2] [%] | Activity [3] | SMILES |
| --- | --- | --- | --- |
| 7.51 | 100 | inactive | CC(C)[C@@H]1CC[C@]2(C(=O)O)CC[C@]3(C)[C@H](CC[C@@H]4[C@@]5(C)CC[C@@H](OC(N)=O)C(C)(C)[C@@H]5CC[C@]43C)[C@@H]12 |
| 6.88 | 97 | inactive | CO/N=C(/C)[C@@H]1CC[C@]2(C(=O)O)CC[C@]3(C)[C@H](CC[C@@H]4[C@@]5(C)CC[C@@H](OC(=O)NC6CC6)C(C)(C)[C@@H]5CC[C@]43C)[C@@H]12 |
| 6.91 | 97 | inactive | CC(C)NC(=O)O[C@@H]1CC[C@]2(C)[C@H]3CC[C@@H]4[C@H]5[C@H](C(C)C)CC[C@]5(C(=O)O)CC[C@@]4(C)[C@]3(C)CC[C@H]2C1(C)C |
| 7.53 | 92 | inactive | CC(C)[C@@H]1CC[C@]2(C(=O)O)CC[C@]3(C)[C@H](CC[C@@H]4[C@@]5(C)CC[C@@H](OC(=O)NC6CCCC6)C(C)(C)[C@@H]5CC[C@]43C)[C@@H]12 |
| 6.42 | 96 | inactive | CC(C)[C@@H]1CC[C@]2(C(=O)NCC(=O)O)CC[C@]3(C)[C@H](CC[C@@H]4[C@@]5(C)CC[C@@H](OC(=O)NC6CC6)C(C)(C)[C@@H]5CC[C@]43C)[C@@H]12 |
| 7.60 | 100 | inactive | COCC(=O)O[C@@H]1CC[C@]2(C)[C@H]3CC[C@@H]4[C@H]5[C@H](C(C)C)CC[C@]5(C(=O)O)CC[C@@]4(C)[C@]3(C)CC[C@H]2C1(C)C |
| 7.75 | 98 | inactive | CNC(=O)O[C@@H]1CC[C@]2(C)[C@H]3CC[C@@H]4[C@H]5[C@H](C(C)C)CC[C@]5(C(=O)O)CC[C@@]4(C)[C@]3(C)CC[C@H]2C1(C)C |

Further lines, the compound ahead of its results:

| SMILES | pEC50 [1] | Emax [2] [%] | Activity [3] |
| --- | --- | --- | --- |
| CC(C)[C@@H]1CC[C@]2(C(=O)OCC(=O)O)CC[C@]3(C)[C@H](CC[C@@H]4[C@@]5(C)CC[C@@H](OC(=O)NC6CC6)C(C)(C)[C@@H]5CC[C@]43C)[C@@H]12 | 6.51 | 98 | inactive |
| C[C@@H](O)[C@@H]1CC[C@]2(C(=O)O)CC[C@]3(C)[C@H](CC[C@@H]4[C@@]5(C)CC[C@@H](OC(=O)NC6CC6)C(C)(C)[C@@H]5CC[C@]43C)[C@@H]12 | 7.42 | 99 | inactive |
| CC(C)[C@@H]1CC[C@]2(C(=O)O)CC[C@]3(C)[C@H](CC[C@@H]4[C@@]5(C)CC[C@@H](OC(=O)Nc6cc[nH]n6)C(C)(C)[C@@H]5CC[C@]43C)[C@@H]12 | 6.76 | 94 | inactive |
| CCNS(=O)(=O)O[C@@H]1CC[C@]2(C)[C@H]3CC[C@@H]4[C@H]5[C@H](C(C)C)CC[C@]5(C(=O)O)CC[C@@]4(C)[C@]3(C)CC[C@H]2C1(C)C | 7.16 | 98 | inactive |
| CCCS(=O)(=O)O[C@@H]1CC[C@]2(C)[C@H]3CC[C@@H]4[C@H]5[C@H](C(C)C)CC[C@]5(C(=O)O)CC[C@@]4(C)[C@]3(C)CC[C@H]2C1(C)C | 7.11 | 98 | inactive |
| CC(C)[C@@H]1CC[C@]2(NC(=O)OCC(=O)O)CC[C@]3(C)[C@H](CC[C@@H]4[C@@]5(C)CC[C@@H](OC(=O)NC6CC6)C(C)(C)[C@@H]5CC[C@]43C)[C@@H]12 | 6.57 | 98 | inactive |
| CCNC(=O)O[C@@H]1CC[C@]2(C)[C@H]3CC[C@@H]4[C@H]5[C@H](C(C)C)CC[C@]5(C(=O)O)CC[C@@]4(C)[C@]3(C)CC[C@H]2C1(C)C | 7.88 | 100 | inactive |
| CNS(=O)(=O)O[C@@H]1CC[C@]2(C)[C@H]3CC[C@@H]4[C@H]5[C@H](C(C)C)CC[C@]5(C(=O)O)CC[C@@]4(C)[C@]3(C)CC[C@H]2C1(C)C | 7.34 | 99 | inactive |

From ChEMBL document CHEMBL4837241, “Identification of Betulinic Acid Derivatives as Potent TGR5 Agonists with Antidiabetic Effects via Humanized TGR5H88Y Mutant Mice” (J Med Chem, 2021)
